Values after ≈ are worked out from the molar mass of the structure shown.
How the values were obtained:
Assay type in all cases: cell-based
[1] = system: THP-1 cell; experiment: Differentiation of monocyte to macrophage in THP-1 cell line; conditions: for EC50: THP-1 differentiate to macrophage, PMA, 96 hrs incubation; for Emax / Maximal activation level: ratio of best effect of compound to that of erythromycin 100 uM, THP-1 differentiation; for Emax: read-out: Maximal activation level
Experimental: The THP-1 cell line was purchased from ATCC (American Type Culture Collection, Manassas, Va.). Cells were maintained in growth medium (RPMI-1640) with supplemented with 10% heat inactivated bovine serum, 100× Glutamax medium and 0.05 mM β-Mercaptoethanol at 37° C. under 5% CO2. Compounds were dissolved in 0.1% DMSO. Erythromycin was used as a positive control.
For the assessment of the effect of compounds of the present invention on differentiation of monocyte to macrophage in THP-1 cell line, cells were collected and centrifuged at 900 rpm for 4 minutes. The cell density was adjusted to 2.5×10^5/mL. cell suspension of 400 μL was added to each well of 48-well plate following the plate layout. PMA 1 mg, a compound can induce monocyte differentiation, was dissolved in 10 mL DMSO to form 100 μg/mL solution and aliquote it into 1 mL per vial. 1 mL solution can be further aliquoted into 10 μL per vial and stored the aliquots at −20° C. Make 10-fold dilution of PMA with DMSO and then 500-fold dilution with complete medium. 50 μL solution were then added to each well of 48-well plate following the plate layout. Erythromycin and compounds of examples at stock concentration of 10 mM was serially diluted at 10-fold in DMSO. 50 μL solution was added to each well of 48-well plate following the plate layout. After 96 hrs incubation at 37° C., 5% CO2, the plate was washed with DPBS for three times to remove non-adherent cells for three times. Complete medium 180 μL and alarmar blue 20 μL was added to each well. The fluorescent intensity was read at excitation 530 nm and emission 590 nm using PerkinElmer Victor3 after 3 hours plate incubation.
The differentiation activity of compounds of Examples is compared to that of 100 μM erythromycin and the results are shown in FIG. 1 and Table 3.

[2] = system: THP-1 cell; experiment: Cell viability (LD50) in THP-1 differentiation test
Experimental: The medium lethal dose (LD50) is the dosage of a compound that reduces the cell viability by 50%, and is determined using non-linear logistic regression.

[3] = system: IL-8 expression in BEAS-2B cell; experiment: LPS induced IL-8 release by BEAS-2B (ELISA); conditions: for Maximum Inhibition: IL-8 expression in BEAS-2B cells, LPS; for IC10: concentration inhibiting IL-8 production on BEAS-2B by 10%, LPS 20 μg/mL
Experimental: The inhibitory effect of compounds of Examples on the IL-8 expression in BEAS-2B cell was tested using the following method. BEAS-2B was purchased from ATCC (American Type Culture Collection, Manassas, Va.). Cells were maintained in growth medium (LHC-9) and cultured at 37° C. under 5% CO2. Compounds were dissolved in 0.1% DMSO. Erythromycin was used as a positive control.
For the assessment of the effect of compounds of Examples on IL-8 expression inhibition in BEAS-2B cell line, cells were plated in 24 well plate at a density of 100,000/mL, in a final volume of 1 mL of assay medium. Cells were incubated at 37° C., 5% CO2 for 1 day. After the incubation, compounds were added at day 2 and LPS was added at day 3. A compound source plate was prepared by triplicate five-point 10-fold or 2-fold serial dilutions in DMSO, beginning at 1 mM (final top concentration of compounds of Examples in the assay was 100 μM and the DMSO was 0.1%). The positive control consisted of cells treated with 100 μM erythromycin and negative control was consisted of 0.1% DMSO treated cells. LPS stock solution at 5 mg/mL was made by dissolving 10 mg of LPS powder into 2 mL of ddH2O and aliquoted to 100 μL per vial. Final concentration of LPS in the assay was […] by making 125-fold dilution of stock solution with medium.
Specific immunoreactivity for IL-8 in culture supernatants were measured by a commercially available ELISA kits (R&D Systems, Inc., Minneapolis, Minn.). Each sample was assayed in duplicates as recommended by the manufacture. The concentration of compounds of Examples inhibiting IL-8 production on BEAS-2B by 10% was estimated from a 4-parametric of the normalized dose response curve. (IC10)

[4] = system: BEAS-2B cell; experiment: Cell viability (LD10) in BEAS-2B IL-8 test; conditions: BEAS-2B cell viability
Excerpt: The lethal dose (LD10) is the dosage of a compound that reduces the cell viability by […], and is estimated from non-linear logistic regression.

[5] = system: Acinetobacter baumanii ATCC 17978; experiment: Antibacterial activity, agar dilution MIC; conditions: Acinetobacter baumannii, ATCC17978, 20-24 hrs incubation, read-out: minimum inhibitory concentration MIC
Experimental: (§1) The antibacterial activity of Erythromycin and compounds of examples were evaluated by the agar dilution method, following the guidelines of the CLSI. […] Briefly, bacteria were grown overnight in adapted media (MHIIA with 5% of sheep blood for Streptococcus pneumoniae and Haemophilus influenzae, and MHIIA for the other bacteria strains) at 35° C., 5% CO2.
(§2) Cultures were centrifuged at 3000×g for 15 min. Pellets were diluted with 5 mls cold PBS and the OD600nm was adjusted to 10^8 CFU.mL^−1 with a spectrometer. Bacteria were then added to 96-well test plates. Compounds were diluted in DMSO in a 2 fold steps from 20 mg/ml in DMSO in 96 well plated and transferred to the test plate. During the incubation, the plate was maintained at 35° C., 5% CO2.
(§3) The MICs for Erythromycin and compounds of examples were determined after 20-24 hrs incubation.

[6] = system: Acinetobacter baumannii ATCC-BAA-1605; experiment: Antibacterial activity, agar dilution MIC; conditions: ATCCBAA1605, 20-24 hrs incubation, read-out: minimum inhibitory concentration MIC
Experimental: as §1, §2, §3

[7] = system: Enterococcus faecalis ATCC 29212; experiment: Antibacterial activity, agar dilution MIC; conditions: ATCC29212, 20-24 hrs incubation, read-out: minimum inhibitory concentration MIC
Experimental: as §1, §2, §3

[8] = system: Haemophilus influenzae ATCC 49247; experiment: Antibacterial activity, agar dilution MIC; conditions: ATCC49247, 20-24 hrs incubation, read-out: minimum inhibitory concentration MIC
Experimental: as §1, §2, §3

[9] = system: Moraxella catarrhalis ATCC 43617; experiment: Antibacterial activity, agar dilution MIC; conditions: ATCC43617, 20-24 hrs incubation, read-out: minimum inhibitory concentration MIC
Experimental: as §1, §2, §3

[10] = system: Staphylococcus aureus ATCC 29213; experiment: Antibacterial activity, agar dilution MIC; conditions: ATCC29213, 20-24 hrs incubation, read-out: minimum inhibitory concentration MIC
Experimental: as §1, §2, §3

[11] = system: Staphylococcus aureus NRS 384; experiment: Antibacterial activity, agar dilution MIC; conditions: NRS384, 20-24 hrs incubation, read-out: minimum inhibitory concentration MIC
Experimental: as §1, §2, §3

[12] = system: Streptococcus pneumoniae ATCC 49619; experiment: Antibacterial activity, agar dilution MIC; conditions: ATCC49619, 20-24 hrs incubation, read-out: minimum inhibitory concentration MIC
Experimental: as §1, §2, §3

[13] = system: Streptococcus pneumoniae ATCC 6301; experiment: Antibacterial activity, agar dilution MIC; conditions: ATCC6301, 20-24 hrs incubation, read-out: minimum inhibitory concentration MIC
Experimental: as §1, §2, §3

[14] = system: Streptococcus pyogenes ATCC BAA-572; experiment: Antibacterial activity, agar dilution MIC; conditions: ATCCBAA572, 20-24 hrs incubation, read-out: minimum inhibitory concentration MIC
Experimental: as §1, §2, §3

[15] = dosage that reduces the cell viability by 50%, THP-1

Compound	EC50 ([1]; Homo sapiens)	Emax ([1]; Homo sapiens)	LD50 ([2]; human)	Maximum Inhibition [3]	IC10 [3]	LD10 [4]	MIC [5]	MIC [6]	MIC [7]	MIC [8]	MIC [9]	MIC [10]	MIC [11]	MIC [12]	MIC [13]	MIC [14]	EC50 [1]	Maximal activation level [1]	LD50 [2, 15]	IL-8 inhibitory activity compared with erythromycin ([3]; at 100 μM concentration, BEAS-2B)
CC[C@H]1OC(=O)[C@H](C)[C@@H](OC2CC(C)(OC)C(O)C(C)O2)[C@H](C)[C@@H](OC2CC(N(C)C(C)=O)CC(C)O2)[C@@](C)(O)C[C@@H](C)[C@H](O)[C@H](C)[C@@H](O)[C@]1(C)O (some centres unmarked) [LY101-33]	22.6 ± 5.7 µM	314 ± 1%	110.0 ± 12.1 µM	25%	20 µM	60 µM														
CC[C@H]1OC(=O)[C@H](C)[C@@H](OC2CC(C)(OC)C(O)C(C)O2)[C@H](C)[C@@H](OC2CC(N(C)C)CC(C)O2)[C@@](C)(O)C[C@@H](C)/C(=N\OCOCCOC)[C@H](C)[C@@H](O)[C@]1(C)O (some centres unmarked) [LY101-39]	10.1 ± 2.2 µM	740 ± 80%	90.0 ± 18.4 µM	35%	20 µM	100 µM	> 128 µg/mL	> 128 µg/mL	> 128 µg/mL	> 128 µg/mL	> 128 µg/mL	> 128 µg/mL	> 128 µg/mL	> 128 µg/mL	> 128 µg/mL	> 128 µg/mL				
CC[C@H]1OC(=O)[C@H](C)[C@@H](OC2CC(C)(OC)C(O)C(C)O2)[C@H](C)[C@@H](OC2CC(N(C)C(C)=O)CC(C)O2)[C@@]2(C)CC(C)=C(O2)[C@H](C)[C@@H](O)[C@]1(C)O (some centres unmarked) [LY101-27]				40%	10 µM	100 µM											12.2 ± 4.6 µM	5.3 ± 1.5	121.1 ± 7.8 µM	
CC[C@H]1OC(=O)[C@H](C)[C@@H](OC2CC(C)(OC)C(O)C(C)O2)[C@H](C)[C@@H](OC2CC(N(C)C)CC(C)O2)[C@@](C)(O)C[C@@H](C)[C@H](O)[C@H](C)[C@@H](O)[C@]1(C)O (some centres unmarked) [LY101-45]	1.5 ± 0.7 µM	530 ± 60%	24.2 ± 5.1 µM	40%	1 µM	15 µM	> 128 µg/mL	> 128 µg/mL	> 128 µg/mL	> 128 µg/mL	> 128 µg/mL	> 128 µg/mL	> 128 µg/mL	> 128 µg/mL	> 128 µg/mL	> 128 µg/mL				
CC[C@H]1OC(=O)[C@H](C)[C@@H](O[C@H]2C[C@@](C)(OC)[C@@H](O)[C@H](C)O2)[C@H](C)[C@@H](O[C@H]2C[C@@H](N(C)C)C[C@@H](C)O2)[C@](C)(O)C[C@@H](C)C(=O)[C@H](C)[C@@H](O)[C@]1(C)O [LY101-2, (3R,4S,5S,6R,9R,11R,12R,13S,14R)-6-(((2S,4S,6R)-4-(dimethylamino)-6-methyltetrahydro-2H-pyran-2-yl)oxy)-14-ethyl-7,12,13-trihydroxy-4-(((2R,4R,5S,6S)-5-hydroxy-4-methoxy-4,6-dimethyltetrahydro-2H-pyran-2-yl)oxy)-3,5,7,9,11,13-hexamethyloxacyclotetradecane-2,10-dione]	0.3 ± 0.03 µM	650 ± 170%	4.6 ± 1.3 µM				> 128 µg/mL	> 128 µg/mL	> 128 µg/mL	> 128 µg/mL	> 128 µg/mL	64 µg/mL (≈ 89.1 µM)	> 128 µg/mL	16 µg/mL (≈ 22.3 µM)	64 µg/mL (≈ 89.1 µM)	64 µg/mL (≈ 89.1 µM)				
CC[C@H]1OC(=O)[C@H](C)[C@@H](OC2CC(C)(OC)C(O)C(C)O2)[C@H](C)[C@@H](OC2CC(N(C)C(C)C)CC(C)O2)[C@@]2(C)CC(C)=C(O2)[C@H](C)[C@@H](O)[C@]1(C)O (some centres unmarked) [LY101-24]				42%	10 µM	50 µM											6.8 ± 1.4 µM	7.0 ± 1.6	56.9 ± 14.0 µM	
CC[C@H]1OC(=O)[C@H](C)[C@@H](OC2CC(C)(OC)C(O)C(C)O2)[C@H](C)[C@@H](OC2CC(N(C)C(C)=O)CC(C)O2)C(C)(O)C[C@@H](C)C(=O)[C@H](C)[C@@H](O)[C@]1(C)O (stereo in doubt) [LY101-22, N-((2S,4S,6R)-2-(((3R,4S,5S,6R,7R,9R,11R,12R,13S,14R)-14-ethyl-7,12,13-trihydroxy-4-(((2R,4R,5S,6S)-5-hydroxy-4-methoxy-4,6-dimethyltetrahydro-2H-pyran-2-yl)oxy)-3,5,7,9,11,13-hexamethyl-2,10-dioxooxacyclotetradecan-6-yl)oxy)-6-methyltetrahydro-2H-pyran-4-yl)-N-methylacetamide]	12.1 ± 2.7 µM	790 ± 50%	125 ± 7.1 µM	33%	10 µM	100 µM	> 128 µg/mL	> 128 µg/mL	> 128 µg/mL	> 128 µg/mL	> 128 µg/mL	> 128 µg/mL	> 128 µg/mL	> 128 µg/mL	> 128 µg/mL	> 128 µg/mL				more potent inhibitory activity than erythromycin

From patent US20230068020A1, “MACROLIDE COMPOUND AND ITS USE OF TREATMENT CHRONIC RESPIRATORY DISEASE” (priority 2020, published 2023)
